Test results: article PMC7181201, “Dual P-Glycoprotein and CA XII Inhibitors: A New Strategy to Reverse the P-gp Mediated Multidrug Resistance (MDR) in Cancer Cells” (Molecules, 2020)

What was measured:
hCA IX = biological target: T1, hCA IX (Homo sapiens, UniProt Q16790); test: Stopped-flow CO2 hydrase assay, hCA IX; assay type: biochemical; conditions: for Ki: stopped flow, mean from 3 assays
T1 construct: made in house
Procedure: (§1) An SX.18MV-R Applied Photophysics (Oxford, UK) stopped-flow instrument was used to assay the catalytic/inhibition of various CA isozymes. […] Saturated CO2 solutions in water at 25 °C were used as a substrate. Stock solutions of inhibitors were prepared at a concentration of 10 μM (in DMSO-water 1:1, v/v) and dilutions up to 0.01 nM done with the assay buffer mentioned above. […] Inhibitor and enzyme solutions were preincubated together for 10 min at room temperature prior to the assay, in order to allow for the formation of the E–I complex. […] The inhibition constants were obtained by non-linear least-squares methods using the Cheng–Prusoff equation, as reported earlier, and represent the mean from at least three different determinations. All CA isozymes used here were recombinant proteins obtained as reported earlier by our group.

P-gp = biological target: T2, P-gp (Homo sapiens, UniProt P08183); test: Rhodamine-123 uptake test on K562/DOX cells (flow cytometry); assay type: cell-based
T2 construct: doxorubicin resistant K562/DOX cell line overexpresses almost exclusively the transporter membrane protein P-gp; endogenous in cells; host or cells: K562/DOX (doxorubicin-selected human erythroleukemia cells)
T2 sequence (P08183 whole entry): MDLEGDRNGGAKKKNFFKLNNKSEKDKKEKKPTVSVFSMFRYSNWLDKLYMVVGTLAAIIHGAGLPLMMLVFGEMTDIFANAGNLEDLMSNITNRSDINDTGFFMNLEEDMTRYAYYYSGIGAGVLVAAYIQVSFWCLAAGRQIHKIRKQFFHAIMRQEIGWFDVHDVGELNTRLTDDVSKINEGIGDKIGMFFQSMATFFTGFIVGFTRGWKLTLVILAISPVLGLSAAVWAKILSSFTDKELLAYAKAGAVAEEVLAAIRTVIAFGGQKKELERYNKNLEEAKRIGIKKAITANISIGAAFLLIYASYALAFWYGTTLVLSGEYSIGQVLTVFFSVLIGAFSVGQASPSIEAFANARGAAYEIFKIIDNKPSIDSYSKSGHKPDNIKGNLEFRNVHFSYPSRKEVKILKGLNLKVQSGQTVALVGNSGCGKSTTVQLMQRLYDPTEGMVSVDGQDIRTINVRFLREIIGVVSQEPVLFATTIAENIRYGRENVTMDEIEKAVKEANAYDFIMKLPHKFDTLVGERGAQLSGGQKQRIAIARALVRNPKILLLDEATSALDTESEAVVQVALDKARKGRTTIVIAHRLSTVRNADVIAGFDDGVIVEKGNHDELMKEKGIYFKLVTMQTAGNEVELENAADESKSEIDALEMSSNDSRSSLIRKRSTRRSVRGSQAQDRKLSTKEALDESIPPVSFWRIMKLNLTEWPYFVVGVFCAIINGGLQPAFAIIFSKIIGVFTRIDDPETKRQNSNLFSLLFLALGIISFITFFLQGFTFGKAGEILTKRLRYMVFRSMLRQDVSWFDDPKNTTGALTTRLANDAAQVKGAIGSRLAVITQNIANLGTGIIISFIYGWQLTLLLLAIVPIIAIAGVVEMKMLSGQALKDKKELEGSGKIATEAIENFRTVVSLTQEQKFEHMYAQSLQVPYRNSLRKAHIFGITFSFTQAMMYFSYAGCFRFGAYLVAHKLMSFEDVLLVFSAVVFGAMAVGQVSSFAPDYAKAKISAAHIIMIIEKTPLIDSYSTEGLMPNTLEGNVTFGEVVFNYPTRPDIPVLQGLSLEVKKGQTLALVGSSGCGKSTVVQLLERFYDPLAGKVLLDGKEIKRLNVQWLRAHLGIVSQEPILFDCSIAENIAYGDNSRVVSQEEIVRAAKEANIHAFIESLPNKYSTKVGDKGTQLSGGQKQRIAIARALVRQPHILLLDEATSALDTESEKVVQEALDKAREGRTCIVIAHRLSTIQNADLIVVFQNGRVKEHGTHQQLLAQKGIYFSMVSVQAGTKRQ
Procedure: The results were expressed as the FR (fluorescence ratio), which is the ratio between the average fluorescence intensity of rhodamine in the presence and in the absence of modulators. Value 1 was attributed to the average fluorescence intensity of the samples exposed only to rhodamine.
An aliquot of cells (control) was incubated with the fluorochrome in the absence of inhibitors.
At the end of the uptake, cells were sedimented, washed twice in ice-cold PBS, placed in PBS on ice, and kept in the dark until flow cytometric analysis.
The histograms were generated by program GraphPad Prism 5 (GraphPad Prism software, Inc., San Diego, CA, USA); the data were obtained from the ratio between the average fluorescence intensity of the samples preincubated with the compounds under study and subsequently exposed to rhodamine, and the fluorescence of the sample exposed only to the rhodamine.

hCA XII = biological target: T3, hCA XII (Homo sapiens, UniProt O43570); test: Stopped-flow CO2 hydrase assay, hCA XII; assay type: biochemical; conditions: for Ki: stopped flow, mean from 3 assays
T3 construct: made in house
T3 sequence (O43570 25-354): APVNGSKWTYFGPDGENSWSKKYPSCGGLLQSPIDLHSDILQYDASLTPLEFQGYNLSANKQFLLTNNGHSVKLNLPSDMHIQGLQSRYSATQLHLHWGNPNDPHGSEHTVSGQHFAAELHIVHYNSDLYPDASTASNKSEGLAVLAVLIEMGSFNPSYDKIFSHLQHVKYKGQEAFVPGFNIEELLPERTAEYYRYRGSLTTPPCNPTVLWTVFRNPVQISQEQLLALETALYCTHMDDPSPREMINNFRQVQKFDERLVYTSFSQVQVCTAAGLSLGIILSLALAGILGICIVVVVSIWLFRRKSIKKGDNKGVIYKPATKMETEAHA
Procedure: as §1

hCA II = biological target: T4, hCA II (Homo sapiens, UniProt P00918); test: Stopped-flow CO2 hydrase assay, hCA II; assay type: biochemical; conditions: for Ki: stopped flow, mean from 3 assays
T4 construct: made in house
Procedure: as §1

hCA I = biological target: T5, hCA I (Homo sapiens, UniProt P00915); test: Stopped-flow CO2 hydrase assay, hCA I; assay type: biochemical; conditions: mean from 3 assays
T5 construct: made in house
T5 sequence (P00915 whole entry): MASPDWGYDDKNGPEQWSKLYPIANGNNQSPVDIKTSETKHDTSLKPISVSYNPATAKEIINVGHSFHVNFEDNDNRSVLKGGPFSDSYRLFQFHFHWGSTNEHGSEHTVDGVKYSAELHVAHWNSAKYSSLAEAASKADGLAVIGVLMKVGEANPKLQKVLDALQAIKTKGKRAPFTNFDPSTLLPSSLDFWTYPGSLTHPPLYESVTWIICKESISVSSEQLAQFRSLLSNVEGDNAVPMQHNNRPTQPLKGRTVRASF
Procedure: as §1

## COc1cc(C(=O)OCCCN(C)CCCCCOC(=O)c2ccc(S(N)(=O)=O)cc2)cc(OC)c1OC [Compound 23, 3-(methyl(5-((4-sulfamoylbenzoyl)oxy)pentyl)amino)propyl 3,4,5-trimethoxybenzoate]
hCA IX; ratio of Ki values
  more potent on hCA IX than on hCA XII: twice
hCA IX
  Ki: 26.6 nM
P-gp; compound 3 µM
  FR (fluorescence ratio, Rhd 123 uptake with/without modulator): 1.00
P-gp; compound 30 µM
  FR (fluorescence ratio, Rhd 123 uptake with/without modulator): 1.66
hCA XII
  Ki: 63.7 nM
hCA II
  Ki: 128 nM
hCA I
  Ki: 284 nM

## COc1cc(C(=O)OCCCCCCN(C)CCCOC(=O)COc2ccc3ccc(=O)oc3c2)cc(OC)c1OC [Compound 10, 6-(methyl(3-(2-((2-oxo-2H-chromen-7-yl)oxy)acetoxy)propyl)amino)hexyl 3,4,5-trimethoxy benzoate]
hCA IX
  Ki: 103 nM
P-gp; compound 3 µM
  FR (fluorescence ratio, Rhd 123 uptake with/without modulator): 1.16
P-gp; compound 30 µM
  FR (fluorescence ratio, Rhd 123 uptake with/without modulator): 2.18
hCA XII
  Ki: 8.9 nM
hCA II
  Ki: > 10000 nM
hCA I
  Ki: > 10000 nM

## COc1cc(/C=C/C(=O)OCCCCCN(C)CCCOC(=O)c2ccc(S(N)(=O)=O)cc2)cc(OC)c1OC [Compound 17, (E)-3-(methyl(5-((3-(3,4,5-trimethoxyphenyl)acryloyl)oxy)pentyl)amino)propyl 4-sulfamoyl benzoate]
hCA IX
  Ki: 215 nM
P-gp; compound 3 µM
  FR (fluorescence ratio, Rhd 123 uptake with/without modulator): 1.13
P-gp; compound 30 µM
  FR (fluorescence ratio, Rhd 123 uptake with/without modulator): 3.90
hCA XII
  Ki: 33.1 nM
hCA II
  Ki: 204 nM
hCA I
  Ki: 56.6 nM

## CN(CCCCCCCOC(=O)c1c2ccccc2cc2ccccc12)CCOC(=O)COc1ccc2ccc(=O)oc2c1 [Compound 14, 7-(methyl(2-(2-((2-oxo-2H-chromen-7-yl)oxy)acetoxy)ethyl)amino)heptyl anthracene-9-carboxylate]
hCA IX
  Ki: 126 nM
P-gp; compound 3 µM
  FR (fluorescence ratio, Rhd 123 uptake with/without modulator): 1.25
P-gp; compound 30 µM
  FR (fluorescence ratio, Rhd 123 uptake with/without modulator): 4.22
hCA XII
  Ki: 42.9 nM
hCA II
  Ki: > 10000 nM
hCA I
  Ki: > 10000 nM

## COc1cc(/C=C/C(=O)OCCCCCCCN(C)CCCCCCCOC(=O)c2ccc(S(N)(=O)=O)cc2)cc(OC)c1OC [Compound 22, (E)-7-(methyl(7-((3-(3,4,5-trimethoxyphenyl)acryloyl)oxy)heptyl)amino)heptyl 4-sulfamoyl benzoate]
hCA IX
  Ki: 172 nM
P-gp; compound 3 µM
  FR (fluorescence ratio, Rhd 123 uptake with/without modulator): 2.85
P-gp; compound 30 µM
  FR (fluorescence ratio, Rhd 123 uptake with/without modulator): 3.20
hCA XII
  Ki: 96.7 nM
hCA II
  Ki: 445 nM
hCA I
  Ki: 73.7 nM

## COc1cc(C(=O)OCCCCCCCN(C)CCOC(=O)COc2ccc3ccc(=O)oc3c2)cc(OC)c1OC [Compound 11, 7-(methyl(2-(2-((2-oxo-2H-chromen-7-yl)oxy)acetoxy)ethyl)amino)heptyl 3,4,5-trimethoxy benzoate]
hCA IX
  Ki: 97.1 nM
P-gp; compound 3 µM
  FR (fluorescence ratio, Rhd 123 uptake with/without modulator): 1.11
P-gp; compound 30 µM
  FR (fluorescence ratio, Rhd 123 uptake with/without modulator): 1.58
hCA XII
  Ki: 8.3 nM
hCA II
  Ki: > 10000 nM
hCA I
  Ki: > 10000 nM

## COc1cc(/C=C/C(=O)OCCCCCCN(C)CCCCOC(=O)COc2ccc3ccc(=O)oc3c2)cc(OC)c1OC [Compound 6, (E)-6-(methyl(4-(2-((2-oxo-2H-chromen-7-yl)oxy)acetoxy)butyl)amino)hexyl 3-(3,4,5-trimethoxyphenyl)acrylate]
hCA IX
  Ki: 40.2 nM
P-gp; compound 3 µM
  FR (fluorescence ratio, Rhd 123 uptake with/without modulator): 1.39
P-gp; compound 30 µM
  FR (fluorescence ratio, Rhd 123 uptake with/without modulator): 1.98
hCA XII
  Ki: 36.4 nM
hCA II
  Ki: > 10000 nM
hCA I
  Ki: > 10000 nM

## COc1cc(/C=C/C(=O)OCCCN(C)CCCCCOC(=O)c2ccc(S(N)(=O)=O)cc2)cc(OC)c1OC [Compound 16, (E)-5-(methyl(3-((3-(3,4,5-trimethoxyphenyl)acryloyl)oxy)propyl)amino)pentyl 4-sulfamoyl benzoate]
hCA IX
  Ki: 211 nM
P-gp; compound 3 µM
  FR (fluorescence ratio, Rhd 123 uptake with/without modulator): 1.08
P-gp; compound 30 µM
  FR (fluorescence ratio, Rhd 123 uptake with/without modulator): 1.83
hCA XII
  Ki: 94.3 nM
hCA II
  Ki: 555 nM
hCA I
  Ki: 447 nM

## CN(CCCCCCOC(=O)c1c2ccccc2cc2ccccc12)CCCOC(=O)c1ccc(S(N)(=O)=O)cc1 [Compound 27, 6-(methyl(3-((4-sulfamoylbenzoyl)oxy)propyl)amino)hexyl anthracene-9-carboxylate]
hCA IX
  Ki: 28.2 nM
P-gp; compound 3 µM
  FR (fluorescence ratio, Rhd 123 uptake with/without modulator): 1.08
P-gp; compound 30 µM
  FR (fluorescence ratio, Rhd 123 uptake with/without modulator): 2.03
hCA XII
  Ki: 31.3 nM
hCA II
  Ki: 422 nM
hCA I
  Ki: 617 nM

## COc1cc(/C=C/C(=O)OCCCN(C)CCCOC(=O)COc2ccc3ccc(=O)oc3c2)cc(OC)c1OC [Compound 1, (E)-3-(methyl(3-(2-((2-oxo-2H-chromen-7-yl)oxy)acetoxy)propyl)amino)propyl 3-(3,4,5-trimethoxyphenyl)acrylate]
hCA IX
  Ki: 142 nM
P-gp; compound 3 µM
  FR (fluorescence ratio, Rhd 123 uptake with/without modulator): 1.44
P-gp; compound 30 µM
  FR (fluorescence ratio, Rhd 123 uptake with/without modulator): 4.76
hCA XII
  Ki: 9.3 nM
hCA II
  Ki: > 10000 nM
hCA I
  Ki: > 10000 nM

## CN(CCCCCOC(=O)COc1ccc2ccc(=O)oc2c1)CCCOC(=O)c1c2ccccc2cc2ccccc12 [Compound 12, 3-(methyl(5-(2-((2-oxo-2H-chromen-7-yl)oxy)acetoxy)pentyl)amino)propyl anthracene-9-carboxylate]
hCA IX
  Ki: 151 nM
P-gp; compound 3 µM
  FR (fluorescence ratio, Rhd 123 uptake with/without modulator): 1.00
P-gp; compound 30 µM
  FR (fluorescence ratio, Rhd 123 uptake with/without modulator): 2.53
hCA XII
  Ki: 45.7 nM
hCA II
  Ki: > 10000 nM
hCA I
  Ki: > 10000 nM

## CN(CCCCCCOC(=O)c1c2ccccc2cc2ccccc12)CCCOC(=O)COc1ccc2ccc(=O)oc2c1 [Compound 13, 6-(methyl(3-(2-((2-oxo-2H-chromen-7-yl)oxy)acetoxy)propyl)amino)hexyl anthracene-9-carboxylate]
hCA IX
  Ki: 82.7 nM
P-gp; compound 3 µM
  FR (fluorescence ratio, Rhd 123 uptake with/without modulator): 1.43
P-gp; compound 30 µM
  FR (fluorescence ratio, Rhd 123 uptake with/without modulator): 2.45
hCA XII; ratio of Ki values
  preference for hCA XII with respect to hCA IX: nine
hCA XII
  Ki: 9.1 nM
hCA II
  Ki: > 10000 nM
hCA I
  Ki: > 10000 nM

## COc1cc(/C=C/C(=O)OCCCCCN(C)CCCOC(=O)COc2ccc3ccc(=O)oc3c2)cc(OC)c1OC [Compound 3, (E)-5-(methyl(3-(2-((2-oxo-2H-chromen-7-yl)oxy)acetoxy)propyl)amino)pentyl 3-(3,4,5-trimethoxyphenyl)acrylate]
hCA IX
  Ki: 54.6 nM
P-gp; compound 3 µM
  FR (fluorescence ratio, Rhd 123 uptake with/without modulator): 1.00
P-gp; compound 30 µM
  FR (fluorescence ratio, Rhd 123 uptake with/without modulator): 2.58
hCA XII
  Ki: 48.8 nM
hCA II
  Ki: > 10000 nM
hCA I
  Ki: > 10000 nM

## COc1cc(/C=C/C(=O)OCCCCCN(C)CCCCCOC(=O)COc2ccc3ccc(=O)oc3c2)cc(OC)c1OC [Compound 4, (E)-5-(methyl(5-(2-((2-oxo-2H-chromen-7-yl)oxy)acetoxy)pentyl)amino)pentyl 3-(3,4,5-trimethoxyphenyl)acrylate]
hCA IX
  Ki: 26.6 nM
P-gp; compound 3 µM
  FR (fluorescence ratio, Rhd 123 uptake with/without modulator): 1.99
P-gp; compound 30 µM
  FR (fluorescence ratio, Rhd 123 uptake with/without modulator): 5.45
hCA XII
  Ki: 18.9 nM
hCA II
  Ki: > 10000 nM
hCA I
  Ki: > 10000 nM

## COc1cc(C(=O)OCCCN(C)CCCCCOC(=O)COc2ccc3ccc(=O)oc3c2)cc(OC)c1OC [Compound 9, 3-(methyl(5-(2-((2-oxo-2H-chromen-7-yl)oxy)acetoxy)pentyl)amino)propyl 3,4,5-trimethoxy benzoate]
hCA IX
  Ki: 133 nM
P-gp; compound 3 µM
  FR (fluorescence ratio, Rhd 123 uptake with/without modulator): 1.00
P-gp; compound 30 µM
  FR (fluorescence ratio, Rhd 123 uptake with/without modulator): 3.95
hCA XII
  Ki: 9.2 nM
hCA II
  Ki: > 10000 nM
hCA I
  Ki: > 10000 nM

## COc1cc(/C=C/C(=O)OCCCCCN(C)CCCCCOC(=O)c2ccc(S(N)(=O)=O)cc2)cc(OC)c1OC [Compound 18, (E)-5-(methyl(5-((3-(3,4,5-trimethoxyphenyl)acryloyl)oxy)pentyl)amino)pentyl 4-sulfamoyl benzoate]
hCA IX
  Ki: 226 nM
P-gp; compound 3 µM
  FR (fluorescence ratio, Rhd 123 uptake with/without modulator): 1.00
P-gp; compound 30 µM
  FR (fluorescence ratio, Rhd 123 uptake with/without modulator): 4.99
hCA XII
  Ki: 62.6 nM
hCA II
  Ki: 425 nM
hCA I
  Ki: 62.6 nM

## COc1cc(/C=C/C(=O)OCCCCCCN(C)CCCCOC(=O)c2ccc(S(N)(=O)=O)cc2)cc(OC)c1OC [Compound 20, (E)-4-(methyl(6-((3-(3,4,5-trimethoxyphenyl)acryloyl)oxy)hexyl)amino)butyl 4-sulfamoyl benzoate]
hCA IX
  Ki: 33.9 nM
P-gp; compound 3 µM
  FR (fluorescence ratio, Rhd 123 uptake with/without modulator): 1.01
P-gp; compound 30 µM
  FR (fluorescence ratio, Rhd 123 uptake with/without modulator): 2.58
hCA XII
  Ki: 41.7 nM
hCA II; ratio of Ki values
  hCA II vs. hCA XII preference: 3 times
hCA II
  Ki: 14 nM
hCA I
  Ki: 84.5 nM

## COc1cc(/C=C/C(=O)OCCCN(C)CCCOC(=O)c2ccc(S(N)(=O)=O)cc2)cc(OC)c1OC [Compound 15, (E)-3-(methyl(3-((3-(3,4,5-trimethoxyphenyl)acryloyl)oxy)propyl)amino)propyl 4-sulfamoyl benzoate]
hCA IX
  Ki: 178 nM
P-gp; compound 3 µM
  FR (fluorescence ratio, Rhd 123 uptake with/without modulator): 1.00
P-gp; compound 30 µM
  FR (fluorescence ratio, Rhd 123 uptake with/without modulator): 2.30
hCA XII
  Ki: 91 nM
hCA II
  Ki: 152 nM
hCA I
  Ki: 55.1 nM
